Values of other authors as cited in US10227338B2, “Substituted benzenesulfonamides as sodium channel blockers” (Daewoong Pharmaceutical Co., Ltd., priority 2015, dated 2019).

Test system: neuropathic pain

NCC1(CC(=O)O)CCCCC1 [gabapentin]
effective for % of the patients: 60%
